Experimental data taken from ChEMBL document CHEMBL3638874, “Pyrrolopyrimidine compounds and their uses” (2015).

Key:
[1] = target: Cyclin-dependent kinase 2 (Homo sapiens, UniProt P24941); assay: (§1) IMAP-FPT (Molecular Devices Trade Mark Technology) Endpoint Assay: The assay was run under the conditions identical to that for CDK1/cyclin B except 0.25 nM CDK1/cyclin B was replaced with 0.3 nM CDK2/cyclin A. A 384-well microtiter IMAP-FPT (Molecular Devices Trade Mark Technology) endpoint assay was used for CDK1/cyclin B kinase activity measurements. The same assay was used for IC50 determination of small molecule inhibitors. In general, the kinase reactions were carried out in 20 μL volumes in the reaction solution, which is composed of 2 μL compound (in 20% DMSO), 8 μL CDK1/cyclin B in the 1× Reaction Buffer (Molecular Devices, Cat. No. R8139), 10 μL substrate mixture of Tamra Histone-H1 peptide (Molecular Devices, Cat. No. R7384) and ATP (Amersham Pharmacia, Cat. No. 27-2056-01) in the 1× Reaction Buffer with 1 mM DTT freshly added. The final reaction mixture contains compound (inhibitor) with the concentration varying from 0.005-10 μM, 2% DMSO, 0.25 nM CDK1/cyclin B, 100 nM Tamra Histone-H1 peptide, and 20 μM ATP.
[2] = target: Cyclin-dependent kinase 1 (Homo sapiens, UniProt P06493); assay: as §1, with “Assay:” for “Assay: The assay was run under the conditions identical to that for CDK1/cyclin B except 0.25 nM CDK1/cyclin B was replaced with 0.3 nM CDK2/cyclin A.”, “uL” for “μL”, “1x” for “1×”, “uM,” for “μM,”, “uM ATP.All reactions were run at room temperature in black 384-well flat-bottom Costar plates (Corning, Cat. No. 3710) for 120 min then were quenched.” for “μM ATP.”
Cyclin-dependent kinase 1, sequence (P06493 whole entry): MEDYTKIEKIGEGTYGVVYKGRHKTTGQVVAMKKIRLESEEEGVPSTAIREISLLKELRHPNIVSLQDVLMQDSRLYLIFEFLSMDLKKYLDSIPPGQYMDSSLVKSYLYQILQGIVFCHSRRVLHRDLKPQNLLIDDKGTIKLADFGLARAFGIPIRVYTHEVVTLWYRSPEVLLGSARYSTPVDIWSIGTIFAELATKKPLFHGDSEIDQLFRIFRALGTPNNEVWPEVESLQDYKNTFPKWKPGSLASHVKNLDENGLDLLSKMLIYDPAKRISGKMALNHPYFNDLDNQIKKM

IC50 [1]: > 15 µM
IC50 [2]: > 15 µM
SMILES: CN(C)C(=O)c1cc2cnc(Nc3ccc(N4CCNCC4=O)cn3)nc2n1C1CCCC1
